# Measurements taken from US8900444B2, “Switchable hydrophilicity solvents and methods of use thereof” (Queen's University at Kingston, priority 2009, dated 2014).
# Key:
# Format in all cases: physicochemical
# [1] = Polarity study with solvatochromatic dye Nile Red (Example 3); details: water-saturated BA or aqueous solution of BAB
# Experimental: The maximum wavelength of absorption, λmax, of a switchable hydrophilicity solvent, N,N,N′-tributylpentanamidine (BA), was analyzed in its hydrophobic and hydrophilic forms using the solvatochromatic dye, Nile Red. A 1 Dram vial was prepared containing 1 mL of distilled water to which 1 mL of BA was added. […] This ensured saturation of the BA phase with water. The top phase comprising the BA liquid was pipetted into a quartz cuvette (Semi-Micro Cells, Self Masking Black Walls Spectrosil® Quartz, Starna Cells, Atascadero, Calif., USA) and 1 mg of Nile Red was added, to provide a bright orange-magenta solution. The ultraviolet absorbance spectrum was acquired on an Agilent Technologies ultraviolet/visible spectrometer 50-60 Hz with UV-Visible Chemstation software. The λmax was 510 nm. Distilled water (1.0 mL) was then added to the quartz cuvette and carbon dioxide was slowly bubbled into the mixture for 1 hour to switch the BA to its ionic form, N,N,N′-tributylpentanamidinium bicarbonate (BAB), after which the homogenous mixture turned purple. The ultraviolet absorbance spectrum of the aqueous solution of the dye and ionic salt was then acquired as discussed in the previous paragraph. The λmax was 570 nm.
# [2] = Regeneration of BA from aqueous BAB using air (Example 1C)
# Experimental: Switching behavior was studied for an aqueous solution of BAB. A glass vial (4 mL) was prepared, containing distilled water (1.0 mL) and BA (1.0 mL) as a two-phase mixture. CO2 was bubbled through the vial for roughly 30 minutes, until the top layer had disappeared showing that a single-phase solution of BAB in water had been formed.
# Air was then bubbled through the same glass vial with the single-phase solution for approximately 5 hours at room temperature to displace CO2 from the solution. The formation of a second layer (hydrophobic BA) was noted.
# [3] = Water miscibility of amidines in neutral form and after CO2
# Text: This represents relatively hydrophilic character. The amidines A-D are unsatisfactory for use as a switchable hydrophilicity solvent because they are insufficiently hydrophobic in their amidine form. […] Since such amidines are not separable from water after switching from their hydrophilic to hydrophobic forms, they are unsuitable for use in the present invention.
# Exposure of a 1:1 by volume mixture of two immiscible liquids, hydrophobic PA and water, to gaseous CO2, at 1 atmosphere, caused a conversion to a hydrophilic liquid comprising an aqueous solution of N,N,N′-tripropylbutyramidinium bicarbonate (PAB) (see FIG. 1 for the chemical scheme in which R^1-4 are propyl). NMR data for the PA/water system is presented in FIGS. 4 and 5 and IR data in FIG. 6. FIGS. 4A and 5A show ^1H and ^13C NMR data for PA. After switching, the detection of the N,N,N′-tripropylbutyramidinium bicarbonate salt was confirmed by ^1H and ^13C NMR as shown in FIGS. 4B and 5B.
# Similarly, exposure of a 1:1 by volume mixture of two immiscible liquids, hydrophobic BA and water, to gaseous CO2, at 1 atmosphere, caused a conversion to a hydrophilic liquid comprising an aqueous solution of N,N,N′-tributylpentanamidinium bicarbonate (BAB) (see FIG. 1 for the chemical scheme in which R^1-4 are butyl). NMR data for the […] is presented in FIGS. 7 and 8 and IR data in FIG. 9. […] show ^1H and ^13C NMR data for BA. After switching, the detection of the N,N,N′-tributylpentanamidinium bicarbonate salt was confirmed by ^1H and ^13C NMR as shown in FIGS. 6B and 7B. The hydrophilic aqueous solution of BAB was converted back into hydrophobic BA and water by heating at 80° C.
structure (smiles),measurement,setting,value
"CCCCN=C(CCCC)N(CCCC)CCCC [BA, N,N,N′-tributylpentanamidine]",maximum wavelength of absorption (λmax) of Nile Red,[1],510 nm
same,time of CO2 bubbling until top layer disappeared,[2]; 1.0 mL water + 1.0 mL BA,roughly 30 minutes
same,time of air bubbling after which second layer was noted,[2]; room temperature,approximately 5 hours
same,miscibility with water after CO2 trigger (amidinium bicarbonate form),[3]; CO2 and water,became miscible
same,"miscibility with water, neutral (unprotonated) amidine form",[3]; no CO2,immiscible with water
